Results published in the supplement of paper PMC11061612.

Legend:
Assay in all cases: Bliss excess, mean over the matrix (fraction); higher = more synergy
[1] = test system: NB14 (Neuroblastoma)
Procedure, shortened: (§1)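 Bliss excess equals the observed combination effect minus the expected value EA + EB − EA·EB, where EA and EB are the effects of each agent alone. Combination Emax is the second-highest inhibition within the matrix. Inhibition was scaled from CellTiter-Glo 2.0 luminescence, with 0 set by vehicle wells and 1 by blank wells, after 72 hours of two-drug dosing of cells plated in 1536-well plates.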

[2] = test system: RT-112 (Bladder Carcinoma)
Procedure, shortened: as §1

[3] = test system: TE-4 (Esophageal Squamous Cell Carcinoma)
Procedure, shortened: as §1

[4] = test system: NCI-H2795 (Mesothelioma)
Procedure, shortened: as §1

[5] = test system: RKO (Colorectal Carcinoma)
Procedure, shortened: as §1

[6] = test system: SK-OV-3 (Ovarian Carcinoma)
Procedure, shortened: as §1

[7] = test system: SW1116 (Colorectal Carcinoma)
Procedure, shortened: as §1

[8] = test system: SH-4 (Melanoma)
Procedure, shortened: as §1

[9] = test system: Hs-633T (Other Solid Carcinomas)
Procedure, shortened: as §1

[10] = test system: KARPAS-231 (B-Cell Non-Hodgkin's Lymphoma)
Procedure, shortened: as §1

[11] = test system: HMV-II (Melanoma)
Procedure, shortened: as §1

[12] = test system: COLO-829 (Melanoma)
Procedure, shortened: as §1

[13] = test system: HO-1-u-1 (Oral Cavity Carcinoma)
Procedure, shortened: as §1

[14] = test system: OC-314 (Ovarian Carcinoma)
Procedure, shortened: as §1

[15] = test system: HCC-15 (Squamous Cell Lung Carcinoma)
Procedure, shortened: as §1

[16] = test system: NCI-H69 (Small Cell Lung Carcinoma)
Procedure, shortened: as §1

[17] = test system: SW1271 (Small Cell Lung Carcinoma)
Procedure, shortened: as §1

[18] = test system: KYSE-410 (Esophageal Squamous Cell Carcinoma)
Procedure, shortened: as §1

[19] = test system: SW626 (Colorectal Carcinoma)
Procedure, shortened: as §1

[20] = test system: K5 (Thyroid Gland Carcinoma)
Procedure, shortened: as §1

Row | Structure (SMILES) | Bliss excess [1] | Bliss excess [2] | Bliss excess [3] | Bliss excess [4] | Bliss excess [5] | Bliss excess [6] | Bliss excess [7] | Bliss excess [8] | Bliss excess [9] | Bliss excess [10] | Bliss excess [11] | Bliss excess [12] | Bliss excess [13] | Bliss excess [14] | Bliss excess [15] | Bliss excess [16] | Bliss excess [17] | Bliss excess [18] | Bliss excess [19] | Bliss excess [20]
1 | Cn1cnc2c(F)c(Nc3ccc(Br)cc3Cl)c(C(=O)NOCCO)cc21 [Selumetinib] + CCN(CCO)CCCOc1ccc2c(Nc3cc(CC(=O)Nc4cccc(F)c4)[nH]n3)ncnc2c1 [AZD2811] (first compound max 10 µM, 7x7, partner max 1 µM) | -0.0491 | -0.0741 | -0.0273 | -0.0238 | 0.088 | -0.0798 | 0.0021 | -0.0324 | 0.0395 | -0.0043 | -0.0477 | -0.0341 | 0.0038 | -0.0193 | -0.03 | -0.056 | -0.0324 | 0.0033 | 0.025 | 0.0018
2 | Cn1cnc2c(F)c(Nc3ccc(Br)cc3Cl)c(C(=O)NOCCO)cc21 [Selumetinib] + C[C@@H]1COCCN1C2=NC(=NC(=C2)C3(CC3)[S@](=N)(=O)C)C4=C5C=CNC5=NC=C4 [AZD6738] (first compound max 10 µM, 7x7, partner max 10 µM) | -0.0232 | -0.0088 | -0.0063 | -0.0239 | -0.0041 | -0.0424 | -0.0148 | -0.0145 | -0.0012 | 0.0287 | -0.0384 | 0.102 | 0.014 | -0.0764 | 0.0787 | -0.0686 | 0.0072 | 0.0274 | 0.0756 | 0.045
3 | CC(=O)Nc1cccc(-n2c(=O)n(C3CC3)c(=O)c3c(Nc4ccc(I)cc4F)n(C)c(=O)c(C)c32)c1 [Trametinib] + Cc1nc(-c2cn3c(n2)-c2ccc(-c4cnn(C(C)(C)C(N)=O)c4)cc2OCC3)n(C(C)C)n1 [Taselisib] (first compound max 1 µM, 7x7, partner max 10 µM) | 0.0702 | 0.106 | 0.0758 | 0.0749 | 0.219 | 0.0582 | 0.139 | 0.0172 | 0.191 | -0.0605 | 0.0405 | 0.234 | 0.0754 | 0.066 | 0.187 | -0.0257 | 0.0896 | 0.168 | 0.0644 | 0.0183
4 | CC1(C)CCC(CN2CCN(c3ccc(C(=O)NS(=O)(=O)c4ccc(NCC5CCOCC5)c([N+](=O)[O-])c4)c(Oc4cnc5[nH]ccc5c4)c3)CC2)=C(c2ccc(Cl)cc2)C1 [Venetoclax] + C1CN(CCC1(C(=O)N[C@@H](CCO)C2=CC=C(C=C2)Cl)N)C3=NC=NC4=C3C=CN4 [Capivasertib] (first compound max 1 µM, 7x7, partner max 3 µM) | -0.0461 | -0.0313 | -0.0421 | -0.111 | -0.0173 | -0.0577 | -0.0491 | -0.0592 | -0.0185 | -0.182 | -0.0444 | -0.045 | -0.052 | -0.0017 | -0.0286 | 0.0185 | -0.105 | -0.0427 | -0.018 | -0.0618
5 | CC1(C)CCC(CN2CCN(c3ccc(C(=O)NS(=O)(=O)c4ccc(NCC5CCOCC5)c([N+](=O)[O-])c4)c(Oc4cnc5[nH]ccc5c4)c3)CC2)=C(c2ccc(Cl)cc2)C1 [Venetoclax] + C=CCn1c(=O)c2cnc(Nc3ccc(N4CCN(C)CC4)cc3)nc2n1-c1cccc(C(C)(C)O)n1 [AZD1775] (first compound max 1 µM, partner max 1 µM) | 0.0967 | 0.0891 | -0.0529 | 0.0657 | 0.0487 | -0.026 | -0.0214 | 0.0107 | 0.017 | -0.047 | -0.0542 | -0.012 | -0.0256 | 0.1 | -0.0355 | -0.0251 | 0.0381 | -0.0451 | -0.0676 | -0.0279
6 | CC1(C)CCC(CN2CCN(c3ccc(C(=O)NS(=O)(=O)c4ccc(NCC5CCOCC5)c([N+](=O)[O-])c4)c(Oc4cnc5[nH]ccc5c4)c3)CC2)=C(c2ccc(Cl)cc2)C1 [Venetoclax] + CCN(CCO)CCCOc1ccc2c(Nc3cc(CC(=O)Nc4cccc(F)c4)[nH]n3)ncnc2c1 [AZD2811] (first compound max 1 µM, 7x7, partner max 1 µM) | -0.0361 | 0.045 | -0.005 | -0.0581 | 0.0096 | -0.0401 | -0.046 | -0.0115 | -0.0086 | -0.0484 | 0.0208 | -0.0359 | -0.0297 | -0.0071 | -0.0209 | 0.0928 | -0.0483 | -0.0234 | -0.0394 | -0.0231
7 | CC1(C)CCC(CN2CCN(c3ccc(C(=O)NS(=O)(=O)c4ccc(NCC5CCOCC5)c([N+](=O)[O-])c4)c(Oc4cnc5[nH]ccc5c4)c3)CC2)=C(c2ccc(Cl)cc2)C1 [Venetoclax] + CN(C)CCCOc1ccc(-c2ccc3ncc4c(c3c2)n(C2CCOCC2)c(=O)n4C)cn1 [AZD0156] (first compound max 1 µM, 7x7, partner max 1 µM) | -0.0017 | -0.0232 | -0.0191 | 0.0332 | 0.0566 | -0.0637 | -0.0409 | -0.0087 | -0.0023 | -0.0599 | 0.0134 | -0.0264 | -0.003 | 0.008 | -0.0196 | 0.002 | -0.0283 | -0.0377 | -0.0381 | -0.0635
8 | CC1(C)CCC(CN2CCN(c3ccc(C(=O)NS(=O)(=O)c4ccc(NCC5CCOCC5)c([N+](=O)[O-])c4)c(Oc4cnc5[nH]ccc5c4)c3)CC2)=C(c2ccc(Cl)cc2)C1 [Venetoclax] + COc1cc(Nc2ncc3c(n2)-c2ccc(Cl)cc2C(c2c(F)cccc2OC)=NC3)ccc1C(=O)O [Alisertib] (first compound max 1 µM, 7x7, partner max 10 µM) | 0.0448 | -0.0323 | -0.034 | -0.0656 | -0.0062 | -0.076 | 0.0127 | -0.0234 | -0.0237 | 0.0566 | -0.0414 | -0.0548 | 0.0246 | 0.0244 | -0.0104 | 0.146 | -0.0222 | -0.0651 | -0.0167 | -0.0455
9 | CC1(C)CCC(CN2CCN(c3ccc(C(=O)NS(=O)(=O)c4ccc(NCC5CCOCC5)c([N+](=O)[O-])c4)c(Oc4cnc5[nH]ccc5c4)c3)CC2)=C(c2ccc(Cl)cc2)C1 [Venetoclax] + C[C@@H]1COCCN1C2=NC(=NC(=C2)C3(CC3)[S@](=N)(=O)C)C4=C5C=CNC5=NC=C4 [AZD6738] (first compound max 1 µM, 7x7, partner max 10 µM) | -0.0005 | 0.0228 | -0.0337 | -0.0578 | -0.0796 | -0.012 | -0.0234 | -0.022 | -0.0455 | -0.18 | -0.0853 | 0.0059 | 0.0026 | -0.003 | -0.0296 | -0.0494 | -0.0497 | -0.0473 | -0.0492 | -0.0758
10 | CC1(C)CCC(CN2CCN(c3ccc(C(=O)NS(=O)(=O)c4ccc(NCC5CCOCC5)c([N+](=O)[O-])c4)c(Oc4cnc5[nH]ccc5c4)c3)CC2)=C(c2ccc(Cl)cc2)C1 [Venetoclax] + C[C@@H](Nc1cc(F)cc(F)c1)c1cc(C(=O)N(C)C)cc2c(=O)cc(N3CCOCC3)oc12 [AZD8186] (first compound max 1 µM, 7x7, partner max 3 µM) | -0.0644 | -0.0197 | -0.0315 | -0.0218 | -0.049 | -0.0984 | -0.0358 | -0.0214 | -0.017 | -0.184 | 0.0093 | -0.0019 | -0.0183 | -0.05 | 0.0109 | 0.0128 | -0.055 | -0.0397 | -0.0258 | -0.111
11 | CC1(C)CCC(CN2CCN(c3ccc(C(=O)NS(=O)(=O)c4ccc(NCC5CCOCC5)c([N+](=O)[O-])c4)c(Oc4cnc5[nH]ccc5c4)c3)CC2)=C(c2ccc(Cl)cc2)C1 [Venetoclax] + Cc1cc2ncnn2cc1Nc1ncc2c(n1)n(C1CCOCC1)c(=O)n2C [AZD7648] (first compound max 1 µM, 7x7, partner max 10 µM) | -0.0033 | 0.0066 | -0.0106 | -0.0113 | -0.0396 | -0.134 | -0.0232 | -0.0039 | -0.0154 | -0.124 | -0.0407 | -0.0367 | -0.0307 | -0.0115 | -0.0033 | -0.0227 | -0.115 | -0.0471 | -0.0098 | -0.103
12 | CC1(C)CCC(CN2CCN(c3ccc(C(=O)NS(=O)(=O)c4ccc(NCC5CCOCC5)c([N+](=O)[O-])c4)c(Oc4cnc5[nH]ccc5c4)c3)CC2)=C(c2ccc(Cl)cc2)C1 [Venetoclax] + Cn1cnc2c(F)c(Nc3ccc(Br)cc3Cl)c(C(=O)NOCCO)cc21 [Selumetinib] (first compound max 1 µM, 7x7, partner max 3 µM) | -0.0221 | 0.0554 | -0.0277 | -0.0354 | 0.0171 | -0.0624 | -0.0736 | -0.0306 | -0.0386 | -0.177 | -0.0317 | -0.0392 | -0.0352 | -0.0214 | 0.0315 | -0.105 | -0.0255 | -0.0393 | -0.0877 | -0.0402
